Toxic doses and inconclusive results are not listed.
System: BDF1 mice, P388 leukemia ip, median survival T/C
Assay: NCI In Vivo Anticancer Drug Screen. Data for tumor model P388 Leukemia (intraperitoneal) in B6D2F1 (BDF1) mice
Conditions: endpoint: median survival time, higher = longer survival
Procedure, shortened: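 T/C = treated-group survival ÷ vehicle-control survival; tumour transplanted into mice before dosing.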

[1] = dose: 100.0 mg/kg/injection, schedule: Q01DX009 (ip), vehicle: Klucel (hydroxypropylcellulose) (HPC)
[2] = dose: 200.0 mg/kg/injection, schedule: Q01DX009 (ip), vehicle: Klucel (hydroxypropylcellulose) (HPC)
[3] = dose: 400.0 mg/kg/injection, schedule: Q01DX009 (ip), vehicle: Klucel (hydroxypropylcellulose) (HPC)
[4] = dose: 50.0 mg/kg/injection, schedule: Q01DX009 (ip), vehicle: saline with Tween-80
[5] = dose: 100.0 mg/kg/injection, schedule: Q01DX009 (ip), vehicle: saline with Tween-80
[6] = dose: 200.0 mg/kg/injection, schedule: Q01DX009 (ip), vehicle: saline with Tween-80
[7] = dose: 100.0 mg/kg/injection, schedule: Q04DX003 (ip), vehicle: saline with Tween-80
[8] = dose: 50.0 mg/kg/injection, schedule: Q04DX003 (ip), vehicle: saline
[9] = dose: 100.0 mg/kg/injection, schedule: Q04DX003 (ip), vehicle: saline
[10] = dose: 100.0 mg/kg/injection, schedule: Q04DX003 (ip), vehicle: Klucel (hydroxypropylcellulose) (HPC)
[11] = dose: 200.0 mg/kg/injection, schedule: Q04DX003 (ip), vehicle: Klucel (hydroxypropylcellulose) (HPC)

## CCOC(=O)CCOc1ccccc1N(CCCl)CCCl
dose: 0.66 mg/kg/injection, schedule: Q04DX003 (ip), vehicle: other
  T/C: 100 % of control
dose: 1.0 mg/kg/injection, schedule: Q04DX003 (ip), vehicle: other
  T/C: 104 % of control
dose: 1.5 mg/kg/injection, schedule: Q04DX003 (ip), vehicle: other
  T/C: 104 % of control
dose: 1.56 mg/kg/injection, schedule: Q04DX003 (ip), vehicle: other
  T/C: 154 % of control
dose: 2.25 mg/kg/injection, schedule: Q04DX003 (ip), vehicle: other
  T/C: 114 % of control
dose: 3.0 mg/kg/injection, schedule: Q04DX003 (ip), vehicle: saline sonified
  T/C: 100 % of control
dose: 3.13 mg/kg/injection, schedule: Q04DX003 (ip), vehicle: other
  T/C: 181 % of control
dose: 3.5 mg/kg/injection, schedule: Q04DX003 (ip), vehicle: saline with Tween-80
  T/C: 172 % of control
dose: 5.2 mg/kg/injection, schedule: Q04DX003 (ip), vehicle: saline with Tween-80
  T/C: 190 % of control
dose: 6.0 mg/kg/injection, schedule: Q04DX003 (ip), vehicle: saline sonified
  T/C: 100 % of control
dose: 9.0 mg/kg/injection, schedule: Q04DX003 (ip), vehicle: saline sonified
  T/C: 100 % of control
dose: 11.0 mg/kg/injection, schedule: Q04DX003 (ip), vehicle: other
  T/C: 227 % of control
dose: 12.0 mg/kg/injection, schedule: Q01DX009 (ip), vehicle: saline
  T/C: 152 % of control
dose: 12.0 mg/kg/injection, schedule: Q04DX003 (ip), vehicle: saline
  T/C: 156 % of control
dose: 12.5 mg/kg/injection, schedule: Q04DX003 (ip), vehicle: other
  T/C: 222 % of control
dose: 16.5 mg/kg/injection, schedule: Q04DX003 (ip), vehicle: other
  T/C: 294 % of control
dose: 25.0 mg/kg/injection, schedule: Q04DX003 (ip), vehicle: other
  T/C: 150 % of control
dose: 25.0 mg/kg/injection, schedule: Q04DX003 (ip), vehicle: saline sonified
  T/C: 159 % of control
dose: 50.0 mg/kg/injection, schedule: Q04DX003 (ip), vehicle: saline sonified
  T/C: 159 % of control
dose: 100.0 mg/kg/injection, schedule: Q04DX003 (ip), vehicle: saline sonified
  T/C: 168 % of control

## CCOC(=O)C1(C(=O)O)CC2C(C)C=CC(C)C2C1 (stereo not given)
[1]
  T/C: 95 % of control
[2]
  T/C: 110 % of control
[3]
  T/C: 100 % of control

## Fc1ccc(C2CN3C(=N2)C=Cc2ccccc23)cc1 (stereo not given)
[4]
  T/C: 101 % of control
[5]
  T/C: 99 % of control
[6]
  T/C: 117 % of control

## O=S(=O)(Sc1ccc(N(CCCl)CCCl)cc1)c1ccc(N(CCCl)CCCl)cc1
[5]
  T/C: 122 % of control
dose: 132.0 mg/kg/injection, schedule: Q01DX009 (ip), vehicle: saline with Tween-80
  T/C: 110 % of control

## C=C1C(=O)OC2CC(C)C3CCC(=O)C3(C)C(O)C12 (stereo not given)
dose: 4.0 mg/kg/injection, schedule: Q01DX009 (ip), vehicle: Klucel (hydroxypropylcellulose) (HPC)
  T/C: 90 % of control
dose: 8.0 mg/kg/injection, schedule: Q01DX009 (ip), vehicle: Klucel (hydroxypropylcellulose) (HPC)
  T/C: 95 % of control
dose: 16.0 mg/kg/injection, schedule: Q01DX009 (ip), vehicle: Klucel (hydroxypropylcellulose) (HPC)
  T/C: 104 % of control
dose: 32.0 mg/kg/injection, schedule: Q01DX009 (ip), vehicle: Klucel (hydroxypropylcellulose) (HPC)
  T/C: 111 % of control

## CCOC(=O)c1cnc(SC)nc1NCc1ccccc1Cl
[1]
  T/C: 100 % of control
[2]
  T/C: 100 % of control
[3]
  T/C: 100 % of control

## CCCCOc1cc(C(=O)O)ccc1[N+](=O)[O-]
dose: 25.0 mg/kg/injection, schedule: Q04DX003 (ip), vehicle: saline with Tween-80
  T/C: 100 % of control
dose: 50.0 mg/kg/injection, schedule: Q04DX003 (ip), vehicle: saline with Tween-80
  T/C: 100 % of control
[7]
  T/C: 104 % of control

## [N-]=[N+]=Nc1ccc(Cl)cc1C(=O)c1ccccc1
dose: 25.0 mg/kg/injection, schedule: Q04DX003 (ip), vehicle: saline
  T/C: 104 % of control
[8]
  T/C: 90 % of control
[9]
  T/C: 109 % of control

## O=C(O)C1CCC(=O)N1C(=O)OCc1ccccc1 (stereo not given)
[5]
  T/C: 90 % of control
[6]
  T/C: 90 % of control
dose: 400.0 mg/kg/injection, schedule: Q01DX009 (ip), vehicle: saline with Tween-80
  T/C: 95 % of control

## NC(=S)N=Nc1ccc(O)c2c(O)ccc(O)c12
dose: 6.3 mg/kg/injection, schedule: Q01DX009 (ip), vehicle: water
  T/C: 96 % of control
dose: 12.5 mg/kg/injection, schedule: Q01DX009 (ip), vehicle: water
  T/C: 94 % of control
dose: 25.0 mg/kg/injection, schedule: Q01DX009 (ip), vehicle: water
  T/C: 92 % of control
dose: 50.0 mg/kg/injection, schedule: Q01DX009 (ip), vehicle: water
  T/C: 86 % of control

## CCOC(=O)c1c[nH]c2c(OC)cccc2c1=O
dose: 25.0 mg/kg/injection, schedule: Q01DX009 (ip), vehicle: saline with Tween-80
  T/C: 93 % of control
[4]
  T/C: 109 % of control
[5]
  T/C: 109 % of control
[7]
  T/C: 99 % of control
[6]
  T/C: 109 % of control
dose: 200.0 mg/kg/injection, schedule: Q04DX003 (ip), vehicle: saline with Tween-80
  T/C: 98 % of control
dose: 300.0 mg/kg/injection, schedule: Q01DX009 (ip), vehicle: saline with Tween-80
  T/C: 90 % of control

## O=C1CC(c2ccc(O)cc2)C2(O1)C(=O)OC(C(O)CO)C2O (stereo not given)
dose: 50.0 mg/kg/injection, schedule: Q01DX010 (ip), vehicle: saline
  T/C: 100 % of control
dose: 100.0 mg/kg/injection, schedule: Q01DX010 (ip), vehicle: saline
  T/C: 100 % of control
dose: 200.0 mg/kg/injection, schedule: Q01DX010 (ip), vehicle: saline
  T/C: 105 % of control
dose: 400.0 mg/kg/injection, schedule: Q01DX010 (ip), vehicle: saline
  T/C: 105 % of control

## CC(C)c1ccc(C(=O)C2CC2)cc1
dose: 25.0 mg/kg/injection, schedule: Q04DX003 (ip), vehicle: Klucel (hydroxypropylcellulose) (HPC)
  T/C: 100 % of control
dose: 50.0 mg/kg/injection, schedule: Q01DX009 (ip), vehicle: Klucel (hydroxypropylcellulose) (HPC)
  T/C: 100 % of control
dose: 50.0 mg/kg/injection, schedule: Q04DX003 (ip), vehicle: Klucel (hydroxypropylcellulose) (HPC)
  T/C: 87 % of control
[1]
  T/C: 113 % of control
[10]
  T/C: 100 % of control
[2]
  T/C: 113 % of control
[11]
  T/C: 95 % of control

## NC(Cc1ccc(O)c(I)c1)C(=O)O (stereo not given)
dose: 25.0 mg/kg/injection, schedule: Q01DX009 (ip), vehicle: saline
  T/C: 109 % of control
dose: 50.0 mg/kg/injection, schedule: Q01DX009 (ip), vehicle: saline
  T/C: 113 % of control
[8]
  T/C: 110 % of control
dose: 100.0 mg/kg/injection, schedule: Q01DX009 (ip), vehicle: saline
  T/C: 120 % of control
[9]
  T/C: 110 % of control
dose: 200.0 mg/kg/injection, schedule: Q01DX009 (ip), vehicle: saline
  T/C: 95 % of control
dose: 200.0 mg/kg/injection, schedule: Q04DX003 (ip), vehicle: saline
  T/C: 115 % of control
dose: 400.0 mg/kg/injection, schedule: Q04DX003 (ip), vehicle: saline
  T/C: 110 % of control

## CCCCOB(CCl)OCCCC
dose: 6.25 mg/kg/injection, schedule: Q01DX001 (ip), vehicle: saline
  T/C: 104 % of control
dose: 12.5 mg/kg/injection, schedule: Q01DX001 (ip), vehicle: saline
  T/C: 100 % of control
dose: 25.0 mg/kg/injection, schedule: Q01DX001 (ip), vehicle: saline
  T/C: 100 % of control

## COc1ccccc1/C=C/c1ccnc2ccccc12
[1]
  T/C: 95 % of control
[10]
  T/C: 110 % of control
[2]
  T/C: 113 % of control
[11]
  T/C: 115 % of control
[3]
  T/C: 122 % of control
dose: 400.0 mg/kg/injection, schedule: Q04DX003 (ip), vehicle: Klucel (hydroxypropylcellulose) (HPC)
  T/C: 105 % of control

## Brc1ccc2c(c1)-c1ccccc1C1=NCCN12
dose: 2.5 mg/kg/injection, schedule: Q01DX009 (ip), vehicle: Klucel (hydroxypropylcellulose) (HPC)
  T/C: 95 % of control
dose: 5.0 mg/kg/injection, schedule: Q01DX009 (ip), vehicle: Klucel (hydroxypropylcellulose) (HPC)
  T/C: 104 % of control
dose: 10.0 mg/kg/injection, schedule: Q01DX009 (ip), vehicle: Klucel (hydroxypropylcellulose) (HPC)
  T/C: 100 % of control
dose: 20.0 mg/kg/injection, schedule: Q01DX009 (ip), vehicle: Klucel (hydroxypropylcellulose) (HPC)
  T/C: 95 % of control

## CCCCCCCCCC(=O)NO
dose: 100.0 mg/kg/injection, schedule: Q01DX001 (ip), vehicle: saline sonified
  T/C: 100 % of control
dose: 200.0 mg/kg/injection, schedule: Q01DX001 (ip), vehicle: saline sonified
  T/C: 100 % of control
dose: 400.0 mg/kg/injection, schedule: Q01DX001 (ip), vehicle: saline sonified
  T/C: 100 % of control
